Measured values reported in patent US12679848B2, “Plasma kallikrein inhibitors” (Merck Sharp & Dohme LLC, priority 2020, dated 2026).

What was measured:
Human plasma kallikrein = biological target: T1, Human plasma kallikrein (Homo sapiens, UniProt P03952); experiment: Plasma Kallikrein Assay; type: biochemical; settings: purified Human plasma kallikrein 0.5 nM, substrate Acetyl-K-P-R-AFC, HEPES pH 7.4; read-out: PKal IC50
T1 construct: yields a heavy chain (371 amino acids) and a light chain (248 amino acids); The active site of plasma kallikrein is contained in the light chain; purchased Enzyme Research Laboratories
T1 sequence (P03952 391-638 limits assumed): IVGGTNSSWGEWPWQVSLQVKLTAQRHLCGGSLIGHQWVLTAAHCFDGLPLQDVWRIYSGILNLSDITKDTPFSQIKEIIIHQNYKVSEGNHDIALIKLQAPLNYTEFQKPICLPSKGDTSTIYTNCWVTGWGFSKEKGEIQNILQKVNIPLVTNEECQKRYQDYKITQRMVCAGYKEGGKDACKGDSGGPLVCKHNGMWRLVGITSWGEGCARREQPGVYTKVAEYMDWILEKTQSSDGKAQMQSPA
T1 sequence (P03952 20-390 partner limits assumed): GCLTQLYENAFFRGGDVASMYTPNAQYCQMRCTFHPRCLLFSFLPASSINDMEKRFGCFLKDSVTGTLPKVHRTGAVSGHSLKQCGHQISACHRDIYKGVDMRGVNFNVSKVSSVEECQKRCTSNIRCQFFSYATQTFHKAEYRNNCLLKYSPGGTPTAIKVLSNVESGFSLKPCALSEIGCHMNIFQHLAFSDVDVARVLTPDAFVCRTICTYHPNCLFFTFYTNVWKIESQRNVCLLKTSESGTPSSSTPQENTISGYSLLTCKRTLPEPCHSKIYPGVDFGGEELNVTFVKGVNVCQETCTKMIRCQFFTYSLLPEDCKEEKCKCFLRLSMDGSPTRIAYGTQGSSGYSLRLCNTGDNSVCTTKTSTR
How it was run: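 Purified human plasma kallikrein at 0.5 nM final with substrate Acetyl-K-P-R-AFC at […], in 50 mM HEPES pH 7.4, 150 mM NaCl, 5 mM CaCl2, 0.1% PEG 8000, at rt or 37° C after enzyme-inhibitor equilibration. IC50 from four-parameter logistic fit of fluorescence rate; Ki via Cheng-Prusoff.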

human factor XIa = human factor XIa (Homo sapiens, UniProt P03951); experiment: Factor XIa Assay; type: biochemical; settings: human factor XIa 0.04 nM, substrate GPR-AFC, 30 min pre-incubation, 25° C., pH 7.4; read-out: FXIa IC50
Chain of human factor XIa (P03951 388-625 limits assumed): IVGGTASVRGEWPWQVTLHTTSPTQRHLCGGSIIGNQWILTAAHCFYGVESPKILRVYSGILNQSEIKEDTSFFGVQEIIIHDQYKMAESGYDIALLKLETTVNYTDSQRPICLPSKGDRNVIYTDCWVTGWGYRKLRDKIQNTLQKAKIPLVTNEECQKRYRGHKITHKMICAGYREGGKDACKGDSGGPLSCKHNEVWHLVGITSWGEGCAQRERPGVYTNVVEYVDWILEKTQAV
Chain of human factor XIa (P03951 19-387 partner limits assumed): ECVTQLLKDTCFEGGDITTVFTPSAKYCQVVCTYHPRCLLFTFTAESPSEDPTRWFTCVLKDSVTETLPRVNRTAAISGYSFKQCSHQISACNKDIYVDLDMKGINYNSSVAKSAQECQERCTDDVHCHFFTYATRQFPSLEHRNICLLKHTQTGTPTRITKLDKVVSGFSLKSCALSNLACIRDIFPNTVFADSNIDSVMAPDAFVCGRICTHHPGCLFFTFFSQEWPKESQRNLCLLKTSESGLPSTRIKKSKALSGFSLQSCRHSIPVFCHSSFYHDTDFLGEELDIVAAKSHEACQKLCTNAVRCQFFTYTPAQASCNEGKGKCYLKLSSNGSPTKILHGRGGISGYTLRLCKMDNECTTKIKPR

| Structure (SMILES) | IC50 (Human plasma kallikrein) | IC50 (human factor XIa) |
| --- | --- | --- |
| Nc1c(C(=O)N2CCC[C@@]3(C2)OC(=O)Nc2ccc(Cl)c(F)c23)cnn1Cc1ccc(Cl)cc1 [Example 42, (R)-1'-(5-Amino-1-(4-chlorobenzyl)-1H-pyrazole-4-carbonyl)-6-chloro-5-fluorospiro[benzo[d][1,3]oxazine-4,3'-piperidin]-2(1H)-one] | 1.4 nM | 504 nM |
| Nc1c(C(=O)N2CCC[C@@]3(C2)OC(=O)Nc2ccc(Cl)c(F)c23)cnn1C1(C(F)(F)F)CCC1 [Example 47, (R)-1'-(5-Amino-1-(1-(trifluoromethyl)cyclobutyl)-1H-pyrazole-4-carbonyl)-6-chloro-5-fluorospiro[benzo[d][1,3]oxazine-4,3'-piperidin]-2(1H)-one] | 6.3 nM | 731 nM |
| Nc1c(C(=O)N2CCC[C@@]3(C2)OC(=O)Nc2ccc(Cl)c(F)c23)cnn1-c1ccccc1Cl [Example 82, (R)-1'-(5-Amino-1-(2-chlorophenyl)-1H-pyrazole-4-carbonyl)-6-chloro-5-fluorospiro[benzo[d][1,3]oxazine-4,3'-piperidin]-2(1H)-one] | 28.4 nM | 739 nM |
| Nc1c(C(=O)N2CCC[C@@]3(C2)OC(=O)Nc2ccc(Cl)c(F)c23)cnn1-c1cccc(C(=O)O)c1 [Example 68, (R)-3-(5-Amino-4-(6-chloro-5-fluoro-2-oxo-1,2-dihydrospiro[benzo[d][1,3]oxazine-4,3'-piperidine]-1'-carbonyl)-1H-pyrazol-1-yl)benzoic acid] | 13.5 nM | 1480 nM |
| CC1(n2ncc(C(=O)N3CCC[C@@]4(C3)OC(=O)Nc3ccc(Cl)c(F)c34)c2N)CCS(=O)(=O)C1 (single isomer, unassigned) [Example 119] | 21 nM | 1460 nM |
| COc1c(F)cc(F)cc1-n1ncc(C(=O)N2CCC[C@@]3(C2)OC(=O)Nc2ccc(Cl)c(F)c23)c1N [Example 101, (R)-1'-(5-Amino-1-(3,5-difluoro-2-methoxyphenyl)-1H-pyrazole-4-carbonyl)-6-chloro-5-fluorospiro[benzo[d][1,3]oxazine-4,3'-piperidin]-2(1H)-one] | 30.6 nM | 1310 nM |
| CC(C)Cn1ncc(C(=O)N2CCC[C@@]3(C2)OC(=O)Nc2ccc(Cl)c(F)c23)c1N [Example 17, (R)-1'-(5-Amino-1-isobutyl-1H-pyrazole-4-carbonyl)-6-chloro-5-fluorospiro[benzo[d][1,3]oxazine-4,3'-piperidin]-2(1H)-one] | 8 nM | 328 nM |
| Nc1c(C(=O)N2CCC[C@@]3(C2)OC(=O)Nc2ccc(Cl)c(F)c23)cnn1-c1cccc(Cl)c1 [Example 110, (R)-1'-(5-Amino-1-(3-chlorophenyl)-1H-pyrazole-4-carbonyl)-6-chloro-5-fluorospiro[benzo[d][1,3]oxazine-4,3'-piperidin]-2(1H)-one] | 66.1 nM | > 10000 nM |
| CC(C)c1ccccc1-n1ncc(C(=O)N2CCC[C@@]3(C2)OC(=O)Nc2ccc(Cl)c(F)c23)c1N [Example 81, (R)-1'-(5-Amino-1-(2-isopropylphenyl)-1H-pyrazole-4-carbonyl)-6-chloro-5-fluorospiro[benzo[d][1,3]oxazine-4,3'-piperidin]-2(1H)-one] | 5.5 nM | 353 nM |
| Nc1c(C(=O)N2CCC[C@@]3(C2)OC(=O)Nc2ccc(Cl)c(F)c23)cnn1CC(F)(F)C(F)(F)F [Example 48, (R)-1'-(5-Amino-1-(2,2,3,3,3-pentafluoropropyl)-1H-pyrazole-4-carbonyl)-6-chloro-5-fluorospiro[benzo[d][1,3]oxazine-4,3'-piperidin]-2(1H)-one] | 13.1 nM | 516 nM |
| Cc1ccc(-n2ncc(C(=O)N3CCC[C@@]4(C3)OC(=O)Nc3ccc(Cl)c(F)c34)c2N)c(F)c1 [Example 66, (R)-1'-(5-Amino-1-(2-fluoro-4-methylpheny1)-1H-pyrazole-4-carbonyl)-6-chloro-5-fluorospiro[benzo[d][1,3]oxazine-4,3'-piperidin]-2(1H)-one] | 39 nM | 242 nM |
| COc1ccccc1Cn1ncc(C(=O)N2CCC[C@@]3(C2)OC(=O)Nc2ccc(Cl)c(F)c23)c1N [Example 40, (R)-1'-(5-Amino-1-(2-methoxybenzyl)-1H-pyrazole-4-carbonyl)-6-chloro-5-fluorospiro[benzo[d][1,3]oxazine-4,3'-piperidin]-2(1H)-one] | 2.3 nM | 249 nM |
| CC1(n2ncc(C(=O)N3CCC[C@@]4(C3)OC(=O)Nc3ccc(Cl)c(F)c34)c2N)CCS(=O)(=O)C1 (single isomer, unassigned) [Example 118, (R)-1'-(5-Amino-1-((R or S)-3-methyl-1,1-dioxidotetrahydrothiophen-3-y1)-1H-pyrazole-4-carbonyl)-6-chloro-5-fluorospiro[benzo[d][1,3]oxazine-4,3'-piperidin]-2(1H)-one] | 24 nM | 1000 nM |
| CCC(C1CCOCC1)n1ncc(C(=O)N2CCC[C@@]3(C2)OC(=O)Nc2ccc(Cl)c(F)c23)c1N (single isomer, unassigned) [Example 112, (R)-1'-(5-Amino-1-((R or S)-1-(tetrahydro-2H-pyran-4-yl)propyl)-1H-pyrazole-4-carbonyl)-6-chloro-5-fluorospiro[benzo[d][1,3]oxazine-4,3'-piperidin]-2(1H)-one] | 2.2 nM | 62 nM |
| Nc1c(C(=O)N2CCC[C@@]3(C2)OC(=O)Nc2ccc(Cl)c(F)c23)cnn1C1(C(F)(F)F)CC[C@@H]2C[C@@H]21 (single isomer, unassigned) [Example 56, (R)-1'-(5-Amino-1-((1S,2S or R,5R)-2-(trifluoromethyl)bicyclo[3.1.0]hexan-2-y1)-1H-pyrazole-4-carbonyl)-6-chloro-5-fluorospiro[benzo[d][1,3]oxazine-4,3'-piperidin]-2(1H)-one] | 2.9 nM | 932 nM |
| CC(C1CC1)(n1ncc(C(=O)N2CCC[C@@]3(C2)OC(=O)Nc2ccc(Cl)c(F)c23)c1N)C(F)(F)F (single isomer, unassigned) [Example 126, (R)-1'-(5-Amino-1-((R or S)-2-cyclopropyl-1,1,1-trifluoropropan-2-y1)-1H-pyrazole-4-carbonyl)-6-chloro-5-fluorospiro[benzo[d][1,3]oxazine-4,3'-piperidin]-2(1H)-one] | 2.2 nM | 459 nM |
| COCC(C)(n1ncc(C(=O)N2CCC[C@@]3(C2)OC(=O)Nc2ccc(Cl)c(F)c23)c1N)C(F)(F)F (single isomer, unassigned) [Example 128, (R)-1'-(5-Amino-1-((R or S)-1,1,1-trifluoro-3-methoxy-2-methylpropan-2-y1)-1H-pyrazole-4-carbonyl)-6-chloro-5-fluorospiro[benzo[d][1,3]oxazine-4,3'-piperidin]-2(1H)-one] | 4.7 nM | 973 nM |
| Nc1c(C(=O)N2CCC[C@@]3(C2)OC(=O)Nc2ccc(Cl)c(F)c23)cnn1-c1ccnc2c(F)cccc12 [Example 104, (R)-1'-(5-Amino-1-(8-fluoroquinolin-4-y1)-1H-pyrazole-4-carbonyl)-6-chloro-5-fluorospiro[benzo[d][1,3]oxazine-4,3'-piperidin]-2(1H)-one] | 9.5 nM | 562 nM |
| Nc1c(C(=O)N2CCC[C@@]3(C2)OC(=O)Nc2ccc(Cl)c(F)c23)cnn1-c1ccccc1C1CC1 [Example 95, (R)-1'-(5-Amino-1-(2-cyclopropylphenyl)-1H-pyrazole-4-carbonyl)-6-chloro-5-fluorospiro[benzo[d][1,3]oxazine-4,3'-piperidin]-2(1H)-one] | 10 nM | 305 nM |
